Test results from publication PMC5369524 (Chemical Science, 2016).

How the values were obtained:
HIV = details: ref [55]; cited from earlier work
[1] = target: C-terminal ZF2 of HIV1NCp7 (Human immunodeficiency virus type 1 group M subtype B, UniProt P12493); details: figures in parentheses of Table 1
full NCp7 peptide = full NCp7 peptide (Human immunodeficiency virus type 1 group M subtype B, UniProt P12493)
[2] = target: full NCp7 zinc finger peptide (Human immunodeficiency virus type 1 group M subtype B, UniProt P12493); details: positive band centered at 210–220 nm

Row | K a, association with C-terminal ZF2 of HIV1NCp7 [1] | K a, association with full NCp7 peptide (full NCp7 peptide; figures in bold parentheses of Table 1) | K a, association constant with full NCp7 peptide (full NCp7 peptide; fluorescence quenching) | Effect on CD spectrum / tertiary structure of NCp7 [2] | SMILES | Anti-HIV activity (HIV)
1 | – | – | – | – | CCn1cnc2c(=O)[nH]c(N)nc21.N.[Cl][Pt+].c1ccc2ncccc2c1 [SP-4-2-[PtCl(NH3)(9-EtGua)(quinoline)]^+] | modest anti-HIV activity
2 | (13.10 ± 0.94) ×10^3 M^–1 | (20 ± 0.08) ×10^3 M^–1 | 2.0 × 10^4 M^–1 | no major disruption of the peptide | CCn1cnc2c(=O)[nH]c(N)nc21.NCCNCCN.[Pt+2] [[Pt(dien)(9-EtGua)]^2+] | –
